According to patent publication US20060159669A1, “Novel uses of PPAR modulators and professional APCs manipulated by the same” (priority 2003, published 2006):
Entries after “also recorded” stand apart in the source; their conditions may differ. Values belong to the molecule of their own block, whether it stands above or below them.

Assays:
[1] = tested on: iNKT cells; assay: Expansion of iNKT cells by alpha-GalCer pulsed DC in autologous PBMC coculture; format: cell-based, human; settings: for Induction of iNKT (Valpha24+ Vbeta11+) cell expansion vs untreated DC: 5-day coculture
Procedure: FACS analysis. Cell staining was performed using alpha-GalCer-loaded APC-labeled CD1d-tetramer (kindly provided by A. Herbelin) and FITC-, Cyc- or PE-conjugated mAbs. Labeled antibodies for flow cytometry included anti-CD161-Cyc, CD8-PE, CD25-PE, CD1a-PE, CD1d-PE, CD86-PE, CD83-PE, CD206-PE, CD3- FITC, CD36-FITC, CD80-FITC, CD209-FITC, HLA-DR-FITC and isotype-matched controls (BD PharMingen), anti-Vbetal 1-PE and anti-Valpha24-FITC (Immunotech). The cells were assessed for fluorescence intensity using EPICS Elite flow cytometer (Beckman Coulter) or with FACS Calibur cytometer (Beckton Dickinson). Data analysis was performed using WinMDI software (Joseph Trotter, The Scripps Research Institute, La Jolla, Calif.).
Expansion of iNKT cells. IDCs were treated with or without the inflammatory mixture as described previously and with 100ng/ml alpha-GalCer for 24 hr to obtain alpha-GalCer-loaded MDC or IDC, respectively. alpha-GalCer pulsed IDCs or MDCs (2×10^5 cells/ml) were cocultured with 2×10^6 monocyte depleted autologous PBMC for 5 days in 24 well plates. The expansion of iNKT cells was monitored by quantifying Valpha24+ Vbetal 1+ and Valpha24+ CD161+ cells by FACS analysis. The specificity of CD1d-restricted NKT cells was also verified by alpha-GalCer loaded APC-labelled CD1d tetramer staining.

[2] = molecular target: T1, PPARg (Homo sapiens, UniProt P37231); assay: FABP4 and other PPARg target gene mRNA expression by real-time RT-PCR in differentiating monocyte-derived DC; format: cell-based; settings: for Induction of FABP4 by receptor-specific agonists: IDC, 2.5 microM RSG, 200 nM GW7845, 1 microM GW501516, 20 microM WY14643, 1 microM T0901317, FIG. 5A
T1 construct: endogenous in cells; host or cells: human monocyte-derived dendritic cells (CD14+ monocytes from buffy coats, GM-CSF + IL-4)
T1 sequence (P37231 1-505): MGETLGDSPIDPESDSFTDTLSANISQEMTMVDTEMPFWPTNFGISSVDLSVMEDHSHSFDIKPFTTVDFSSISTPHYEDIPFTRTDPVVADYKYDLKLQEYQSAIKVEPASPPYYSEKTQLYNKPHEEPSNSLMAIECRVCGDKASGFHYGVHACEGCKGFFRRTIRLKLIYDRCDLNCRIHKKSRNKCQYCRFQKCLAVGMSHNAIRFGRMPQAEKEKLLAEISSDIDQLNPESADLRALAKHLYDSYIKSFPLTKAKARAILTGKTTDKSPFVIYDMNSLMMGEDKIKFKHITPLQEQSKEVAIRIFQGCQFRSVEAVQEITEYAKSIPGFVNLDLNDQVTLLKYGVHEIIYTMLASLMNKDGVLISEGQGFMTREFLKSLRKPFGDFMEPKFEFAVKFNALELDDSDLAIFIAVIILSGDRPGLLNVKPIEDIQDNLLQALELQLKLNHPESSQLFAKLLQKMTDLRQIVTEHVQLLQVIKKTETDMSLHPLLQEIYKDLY
Procedure: DC generation and maturation. Highly enriched monocytes (98% CD14+) were obtained from buffy coats of healthy donors (provided by the local blood center) by Ficoll gradient centrifugation and immunomagnetic cell separation using anti-CD14-conjugated microbeads (VarioMACS; Miltenyi Biotec). […] Cells were cultured for 5 or 6 days and the IL-4 and GM-CSF addition was repeated at day 2 to obtain a population of immature DCs. In some experiments FBS was replaced with human AB serum (Sigma).
(§1) Ligands or vehicle control (50% DMSO/ethanol) were added to the cell culture starting from the first day.
(§2) Real-time RT-PCR. […] The following primers and probes were used: […]

[3] = tested on: CD1d; assay: CD1d mRNA expression (RT-PCR, Affymetrix microarray) in monocyte-derived DC; format: cell-based, human; settings: IDC; for Induction of CD1d by receptor-specific agonists: 2.5 microM RSG, 200 nM GW7845, 1 microM GW501516, 20 microM WY14643, 1 microM T0901317, FIG. 5B
Procedure: DC generation and maturation. Highly enriched monocytes (98% CD14+) were obtained from buffy coats of healthy donors (provided by the local blood center) by Ficoll gradient centrifugation and immunomagnetic cell separation using anti-CD14-conjugated microbeads (VarioMACS; Miltenyi Biotec). Human monocyte-derived IDCs were prepared as described previously (Sallusto and Lanzavecchia, 1994) with minor modification. In brief, monocytes were resuspended into six-well culture dishes at a density of 1.5×10^6 cells/ml and cultured in RPMI 1640 supplemented with 10% FBS (Invitrogen), containing 800 U/ml GM-CSF (Leucomax) and 500 U/ml IL-4 (Peprotech). Cells were cultured for 5 or 6 days and the IL-4 and GM-CSF addition was repeated at day 2 to obtain a population of immature DCs. In some experiments FBS was replaced with human AB serum (Sigma). To obtain MDCs, IDCs were treated with a mixture of cytokines: 10 ng/ml TNF-alpha (Peprotech), 10 ng/ml IL-1beta (Peprotech), 1000 U/ml IL-6 (Peprotech), 1 microg/ml PGE2 (Sigma) and 800 U/ml GM-CSF for 24 hr (Jonuleit et al., 1997).
as §1
Microarray experiment. Total RNA was isolated using Trizol Reagent (Invitrogen) and further purified by using the RNeasy kit (Quiagen). cRNA was generated from 5 microg of total RNA by using the SuperScript Choice kit (Invitrogen) and the High Yield RNA transcription labeling kit (Enzo Diagnostics). Fragmented cRNA was hybridized to Affymetrix (Santa Clara, Calif.) arrays (HU95A) according to Affymetrix standard protocols. Preliminary data analysis was performed by the Microarray Core Facility at University of California at Irvine. Further analysis was performed using GeneSpring 6.0 (Silicon Genetics, Redwood City, Calif.). These analyses provided a signal for each specific transcript that was subsequently normalized by comparing to the median signal (arbitrary value of 1.0) obtained from the whole array.
as §2

Structure (SMILES): CN(CCOc1ccc(CC2SC(=O)NC2=O)cc1)c1ccccn1 (stereo not shown) [RSG, Rosiglitazone]
Induction of iNKT (Valpha24+ Vbeta11+) cell expansion vs untreated DC ([1]; alpha-GalCer loaded RSG treated IDC, depending on the donor): 1.5-10.25 fold
Induction of iNKT (Valpha24+ Vbeta11+) cell expansion vs untreated DC ([1]; alpha-GalCer loaded RSG treated MDC as stimulator): 1.1-4 fold

Structure (SMILES): Cc1cccc(Nc2cc(Cl)nc(SCC(=O)O)n2)c1C [Wy14,643]
Induction of FABP4 by receptor-specific agonists [2]: much less potently

Structure (SMILES): CCCCCCCCCCCCCCCCCCCCCCCCCC(=O)N[C@@H](CO[C@H]1O[C@H](CO)[C@H](O)[C@H](O)[C@H]1O)[C@H](O)[C@H](O)CCCCCCCCCCCCCC [alpha-GalCer, alpha-galactosyl-ceramide]
Expansion of Valpha24+ Vbeta11+ iNKT cells by glycolipid loading of DC ([1]; DC pulsed with 100ng/ml alpha-GalCer for 24 hr, 5 days coculture): necessary for the potent induction; also recorded: remarkable expansion of iNKT cells

Structure (SMILES): O=S(=O)(c1ccccc1)N(CC(F)(F)F)c1ccc(C(O)(C(F)(F)F)C(F)(F)F)cc1 [T0901317]
Induction of CD1d by receptor-specific agonists [3]: failed to activate CD1d

Further lines, with some results ahead:

Block of the more pronounced FABP4 increase in human AB serum ([2]; 5 microM GW9662, FBS replaced with human AB serum): blocked effectively
Structure (SMILES): O=C(Nc1ccccc1)c1cc([N+](=O)[O-])ccc1Cl [GW9662]
Inhibition of FABP4 up-regulation by PPARg antagonist ([2]; 5 microM GW9662, untreated and 2.5 microM RSG treated DC): able to prevent the up-regulation of FABP4; also recorded: inhibited
Inhibition of PPARg specific induction of CD1d by antagonist ([3]; 5 microM GW9662 with 2.5 microM RSG): inhibited

Induction of FABP4 by receptor-specific agonists [2]: specifically up-regulated
Induction of CD1d by receptor-specific agonists [3]: turn on gene expression
Structure (SMILES): COC(=O)c1ccccc1N[C@@H](Cc1ccc(OCCc2nc(-c3ccccc3)oc2C)cc1)C(=O)O [GW7845]
